Data: patent US11236041B2, “Type-G crystal form of fenolamine, preparation method, composition and use thereof” (INSTITUTE OF MATARIA MEDICA, CHINESE ACADEMY OF MEDICAL …, priority 2017, dated 2022)

Assay: Stability of solid of type-G fenolamine crystal form (influencing factor experiment)
Assay type: physicochemical
Details: open watch glass; 60° C., 40° C., and 25° C., relative humidity 90%±5%, illumination 4500 lx±500 lx; 10 days, sampled Days 0, 5, 10; powder X-ray diffraction and gas chromatography
Method: Type-G fenolamine crystal form samples were placed in open clean watch glasses, and kept under conditions of a high temperature of 60° C., a high temperature of 40° C., and 25° C., a relative humidity of 90%±5%, and illumination at 4500 lx±500 lx for 10 days, and samples were taken on Days 0, 5, and 10. Powder X-ray diffraction (with a resultant pattern consistent to that in FIG. 1) and gas chromatography means were used for analysis. […] All of the products from Example 1 were subjected to this test and achieved the same effect.

stability of the crystal form under conditions of high temperature, high humidity and light illumination: stable
Compound: COc1ccc(OC)c(/C(=C\c2ccc(O)c(OC)c2)C(=O)NCCc2ccc(O)cc2)c1 [type-G fenolamine crystal form, trans-2-(2,5-dimethoxyphenyl)-3-(4-hydroxy-3-methoxyphenyl)-N-(4-hydroxyphenylethyl)-acrylamide]
